Measurements as given in patent US8501245B2, “Selectively inhibiting estrogen production and providing estrogenic effects in the human body” (Morinda, Inc., priority 2000, dated 2013).
Several values for one entry are separate records, joined by “and”; a condition that tells them apart may be missing. Equal entries are not always repeated.

Test system: ICR derived female immature mice
Assay: Protocol # 531000 Estrogenic Agonism in Mice (uterine wet weight)
Assay type: in vivo
Details: 0.03 mg/kg PO; for % Increase in uterine wet weight: compared with historical vehicle control (16.5 mg)
Method: Tahitian Noni® Puree Juice Concentrate (TNPJC) dry form was evaluated for possible estrogenic agonism is ICT derived immature female mice at a maximum tolerated dose of 4000 mg/kg administered orally once daily for 3 consecutive days. The dry form of TNPJC resulted from using a Rotor Vap with pressure and low temperature.
Test substance TNCONC was evaluated for possible Estrogenic Agonism in ICR derived female immature mice at a maximum tolerated dose of 4000 mg/kg administered orally once daily for 3 consecutive days.
1. Test Substances and Dosing Pattern—TNCONC, provided by Morinda, Inc., was dissolved in 2% Tween 80/0.9% NaCl. For testing, a maximum tolerated dose of 4000 mg/kg was administered […] daily for 3 consecutive days, and a dosing volume of 10 ml/kg was used.
2. Animals—Female ICR mice provided by MDS Pharma Services—Taiwan Ltd. were used. Space allocation for 5 animals was 29×18×13 cm. Animals were housed in APEC^R cages and maintained in a controlled temperature (22° C.-24° C.) and humidity (60%-80%) environment with 12 hours light dark cycles for at least one week in MDS Pharma Services—Taiwan Laboratory prior to use. Free access to standard lab chow for rats (Lab Diet, Rodent Diet, PMI Nutrition International, USA) and tap water was granted. All aspects of this work including housing, experimentation and disposal of animals were performed in general accordance with the International Guiding Principles for Biomedical Research Involving Animals (CIOMS Publication No. ISBN 92 90360194, 1985),
Test substance was administered at a maximum tolerated dose of 4000 mg/kg IP for three consecutive days to a group of 5 ICR derived immature female mice weighing 13±1 g. The animals were sacrificed 24 hours after the final dose and wet weight of the uterus of each animal was measured. A 50 percent or more (≧50%) increase in uterine wet weight relative to control group of animals indicates possible estrogen agonist activity.
A vehicle or test substance was administered IP for three consecutive days to female immature mice weighing 13±1 g. The animals were sacrificed 24 hours after the final dose and wet weight of the uterus of each animal was determined. A 50 percent or more (≧50%) increase in uterine wet weight relative to the vehicle treated group of animals, shown in parenthesis, indicates possible estrogen agonist activity.

## C[C@]12CC[C@@H]3c4ccc(OC(=O)c5ccccc5)cc4CC[C@H]3[C@@H]1CC[C@@H]2O [β-Estradiol 3-Benzoate]
  Weight of Uterus, Average: 30.2 mg
  % Increase in uterine wet weight: (83) %
Listed as Estradiol 3-Bensoate
  % Increase in uterine wet weight: dramatic increase
Listed as β-Estadiol 3-Benzoate
  % Increase in uterine wet weight: 83%
Single animals N 1-5
  Weight of Uterus, Individual: 28.7 mg and 20.7 mg and 31.3 mg and 35.6 mg and 34.9 mg
